Values of other authors in patent US10426724B2, “Antihistamine compositions, combinations, and use thereof” (APTAPHARMA INC., priority 2016, dated 2019).

Target: histamine H1-receptors (Homo sapiens, UniProt P35367)
Details: from time of administration to symptomatic relief; Annals of Allergy, Asthma, & Immunology (1997), 79

histamine H1-receptors, sequence (P35367 whole entry): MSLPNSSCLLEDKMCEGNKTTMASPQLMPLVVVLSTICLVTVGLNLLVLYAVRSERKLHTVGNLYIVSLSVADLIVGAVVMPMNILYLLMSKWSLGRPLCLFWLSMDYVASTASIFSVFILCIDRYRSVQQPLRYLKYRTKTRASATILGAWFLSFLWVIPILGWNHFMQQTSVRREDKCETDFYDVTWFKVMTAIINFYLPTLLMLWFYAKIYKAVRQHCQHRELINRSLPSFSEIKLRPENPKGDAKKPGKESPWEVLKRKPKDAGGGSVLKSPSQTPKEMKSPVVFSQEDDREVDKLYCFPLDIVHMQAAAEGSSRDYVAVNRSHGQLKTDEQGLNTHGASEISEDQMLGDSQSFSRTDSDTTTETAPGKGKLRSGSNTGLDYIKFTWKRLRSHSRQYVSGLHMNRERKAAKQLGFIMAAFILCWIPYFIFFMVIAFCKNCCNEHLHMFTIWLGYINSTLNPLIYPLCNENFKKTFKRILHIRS

- lag time before onset of action: several hours
Compound: O=C(O)COCCN1CCN(C(c2ccccc2)c2ccc(Cl)cc2)CC1 (stereo not shown) [cetirizine]
